According to PubChem BioAssay AID2060601 (Molecular Pharmacology Branch, DTP, NCI, 2025):

Test system: 874868-142-R-J2-PDC complex spheroids, growth % test/control
Experiment: Anticancer human tumor 874868-142-R-J2-PDC patient-derived head and neck squamous carcinoma cell line growth inhibition [CLK]
Settings: for IC50: curve of first compound; for viability, T/C: stronger effect = lower value; active = viability on the fitted dose curve at most 10% of control; inactive = the rest
Summary of the method: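 Patient-derived tumor cells grown as complex spheroids with HUVEC endothelial cells and mesenchymal stem cells, treated with drug combinations. Concentrations descend in half-log steps from near clinical Cmax, or from 10 microM if Cmax unknown.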

[1] = second compound 0.0316 µM, first compound 0.0316 µM
[2] = second compound 0.0316 µM, first compound 0.1 µM
[3] = second compound 0.0316 µM, first compound 0.316 µM
[4] = second compound 0.0316 µM, first compound 1 µM
[5] = second compound 0.0316 µM, first compound 3.16 µM
[6] = second compound 0.0316 µM, first compound 10 µM
[7] = second compound 0.1 µM, first compound 0.0316 µM
[8] = second compound 0.1 µM, first compound 0.1 µM
[9] = second compound 0.1 µM, first compound 0.316 µM
[10] = second compound 0.1 µM, first compound 1 µM
[11] = second compound 0.1 µM, first compound 3.16 µM
[12] = second compound 0.1 µM, first compound 10 µM
[13] = second compound 0.316 µM, first compound 0.0316 µM
[14] = second compound 0.316 µM, first compound 0.1 µM
[15] = second compound 0.316 µM, first compound 0.316 µM
[16] = second compound 0.316 µM, first compound 1 µM
[17] = second compound 0.316 µM, first compound 3.16 µM
[18] = second compound 0.316 µM, first compound 10 µM
[19] = second compound 1 µM, first compound 0.0316 µM
[20] = second compound 1 µM, first compound 0.1 µM
[21] = second compound 1 µM, first compound 0.316 µM
[22] = second compound 1 µM, first compound 1 µM
[23] = second compound 1 µM, first compound 3.16 µM
[24] = second compound 1 µM, first compound 10 µM
[25] = second compound 3.16 µM, first compound 0.0316 µM
[26] = second compound 3.16 µM, first compound 0.1 µM
[27] = second compound 3.16 µM, first compound 0.316 µM
[28] = second compound 3.16 µM, first compound 1 µM
[29] = second compound 3.16 µM, first compound 3.16 µM
[30] = second compound 3.16 µM, first compound 10 µM
[31] = second compound 10 µM, first compound 0.0316 µM
[32] = second compound 10 µM, first compound 0.1 µM
[33] = second compound 10 µM, first compound 0.316 µM
[34] = second compound 10 µM, first compound 1 µM
[35] = second compound 10 µM, first compound 3.16 µM
[36] = second compound 10 µM, first compound 10 µM
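Also: spheroids exposed to the compounds for 7 days.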
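For viability, T/C in this document: 100% = DMSO vehicle control viability.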

Nc1ccn(C2OC(CO)C(O)C2(F)F)c(=O)n1 (stereo unspecified) + CN1CCN(c2cc(C(=O)Nc3cc4cc(-c5cnn(C)c5)ccc4cn3)ccn2)CC1
active: viability, T/C [19] 0.24% | viability, T/C [20] 0.22% | viability, T/C [21] 0.33% | viability, T/C [22] 0.18% | viability, T/C [23] 0.28% | viability, T/C [24] 0.2% | viability, T/C [25] 0.26% | viability, T/C [26] 0.23% | viability, T/C [27] 0.16% | viability, T/C [28] 0.18% | viability, T/C [29] 0.19% | viability, T/C [30] 0.43% | viability, T/C [31] 0.14% | viability, T/C [32] 0.19% | viability, T/C [33] 0.23% | viability, T/C [34] 0.2% | viability, T/C [35] 0.25% | viability, T/C [36] 1.04%
inactive: viability, T/C [1] 80.5% | viability, T/C [2] 72.9% | viability, T/C [3] 58.7% | viability, T/C [4] 37.6% | viability, T/C [5] 20.5% | viability, T/C [6] 26.1% | viability, T/C [7] 62.2% | viability, T/C [8] 70.5% | viability, T/C [9] 61.4% | viability, T/C [10] 26.8% | viability, T/C [11] 19.9% | viability, T/C [12] 24.1% | viability, T/C [13] 14.3% | viability, T/C [14] 14.6% | viability, T/C [15] 11.8% | viability, T/C [16] 9.83% | viability, T/C [17] 11.6% | viability, T/C [18] 11.8%
489 nM: IC50 (second compound 0.0316 µM)
< 31.6 nM: IC50 (second compound 0.316 µM) | IC50 (second compound 1 µM) | IC50 (second compound 3.16 µM) | IC50 (second compound 10 µM)
463 nM: IC50 (second compound 0.1 µM)

O=C(c1cc(Cc2n[nH]c(=O)c3ccccc23)ccc1F)N1CCN(C(=O)C2CC2)CC1 + CN1CCN(c2cc(C(=O)Nc3cc4cc(-c5cnn(C)c5)ccc4cn3)ccn2)CC1
> 10000 nM: IC50 (second compound 0.0316 µM) | IC50 (second compound 0.1 µM)
< 31.6 nM: IC50 (second compound 0.316 µM) | IC50 (second compound 1 µM) | IC50 (second compound 3.16 µM) | IC50 (second compound 10 µM)
active: viability, T/C [19] 0.42% | viability, T/C [20] 0.25% | viability, T/C [21] 0.36% | viability, T/C [22] 0.19% | viability, T/C [23] 0.32% | viability, T/C [24] 0.44% | viability, T/C [25] 0.18% | viability, T/C [26] 0.2% | viability, T/C [27] 0.63% | viability, T/C [28] 0.28% | viability, T/C [29] 0.34% | viability, T/C [30] 2.51% | viability, T/C [31] 0.11% | viability, T/C [32] 0.31% | viability, T/C [33] 3.38% | viability, T/C [34] 0.18% | viability, T/C [35] 0.23% | viability, T/C [36] 0.69%
inactive: viability, T/C [1] 86.3% | viability, T/C [2] 88% | viability, T/C [3] 89.6% | viability, T/C [4] 94.7% | viability, T/C [5] 68.2% | viability, T/C [6] 83.5% | viability, T/C [7] 71.1% | viability, T/C [8] 70.4% | viability, T/C [9] 69.2% | viability, T/C [10] 65.6% | viability, T/C [11] 46.4% | viability, T/C [12] 60.5% | viability, T/C [13] 23.5% | viability, T/C [14] 20.9% | viability, T/C [15] 17.7% | viability, T/C [16] 12.1% | viability, T/C [17] 21.3% | viability, T/C [18] 15.1%

O=c1[nH]cc(F)c(=O)[nH]1 + CN1CCN(c2cc(C(=O)Nc3cc4cc(-c5cnn(C)c5)ccc4cn3)ccn2)CC1
2320 nM: IC50 (second compound 0.0316 µM)
active: viability, T/C [19] 0.31% | viability, T/C [20] 0.25% | viability, T/C [21] 0.25% | viability, T/C [22] 0.29% | viability, T/C [23] 0.14% | viability, T/C [24] 0.21% | viability, T/C [25] 0.18% | viability, T/C [26] 0.21% | viability, T/C [27] 0.22% | viability, T/C [28] 0.18% | viability, T/C [29] 0.5% | viability, T/C [30] 0.21% | viability, T/C [31] 0.08% | viability, T/C [32] 0.14% | viability, T/C [33] 0.14% | viability, T/C [34] 0.15% | viability, T/C [35] 0.29% | viability, T/C [36] 0.17%
inactive: viability, T/C [1] 99.7% | viability, T/C [2] 74.5% | viability, T/C [3] 83.8% | viability, T/C [4] 70.8% | viability, T/C [5] 41.6% | viability, T/C [6] 37% | viability, T/C [7] 66.7% | viability, T/C [8] 79% | viability, T/C [9] 62.4% | viability, T/C [10] 43.7% | viability, T/C [11] 24.8% | viability, T/C [12] 31% | viability, T/C [13] 18.2% | viability, T/C [14] 17.2% | viability, T/C [15] 12.4% | viability, T/C [16] 10.2% | viability, T/C [17] 12.2% | viability, T/C [18] 10.7%
< 31.6 nM: IC50 (second compound 0.316 µM) | IC50 (second compound 1 µM) | IC50 (second compound 3.16 µM) | IC50 (second compound 10 µM)
667 nM: IC50 (second compound 0.1 µM)
